This is an account of results in patent US6414021B1, “Control of intraocular pressure during surgery” (Sucampo AG, priority 2000, dated 2002).

In experiment [1] the test system is intraocular pressure in monkeys. In words: Effects on intraocular pressure by intra-anterior chamber perfusion with a lower dosage in monkeys (Example 2, 2 ng/mL). The note with it: for IOP: perfusion 40 μL/min for 1 hour; for IOP / Difference in IOP between both treatments (IOP in 15-keto acid of latanoprost treatment minus IOP in vehicle treatment) / ΔIOP: Changes of IOP from pre-treatment value: mean ± S.E. of 7 animals. The experiment is classed as in vivo, cynomologus monkeys. The method, then: The effects on intraocular pressure by intra-anterior chamber perfusion with a lower dosage of 13,14-dihydro-15-keto-17-phenyl-18,19,20-trinor-PGF2 α (15-keto acid of latanoprost) were investigated in monkeys. One hour perfusion in the anterior chamber with 15-keto acid of latanoprost at the concentration (2 ng/mL) was carried out.
The solution containing 15-keto acid of latanoprost at 2 ng/mL was prepared with a commercially available intraocular perfusate (Opeguard MA, Senju Pharmaceutical Co. Ltd.) as a vehicle.
Seven male cynomologus monkeys (Body weight: 3.9-6.0 kg) purchased from Kasyo Co., Ltd. were used. These monkeys were housed individually in cages in a room which was maintained at room temperature of 24±1° C., relative humidity of 55±10%, ventilation rate of about 12 times/hour and 12-hour light-dark cycle (fluorescent lighting: 8:00 to 20:00). The animals were given food pellets for monkeys (PS, Oriental Yeast Co., Ltd.), vegetables and fruits once a day, and allowed free access to tap water from an automatic dispenser. The healthy animals without abnormalities in the anterior segment of the eye were used in this study.
The animals were anesthetized by an intramuscular injection of 5.0-7.5 mg/kg of katamine hydrochloride (Ketalar 50, Sankyo Co., Ltd.), and restrained in a supine position. Two 30 G injection needles (one for infusion of the dosing solution and the other for discharge, Becton Dickinson and Co.) connected to polyethylene cannula (PE10, Becton Dickinson and Co.) were inserted into the anterior chamber from the temporal corneal ring of the eye ball. The anterior chamber was perfused with the 15-keto acid of latanoprost solution or the vehicle at a rate of 40 μL/min through the cannula for 1 hour using a syringe pump (Model 100, KD Scientific Inc.). During the perfusion, the anesthesia was maintained by intramuscular injection of 5.0 mg/kg ketamine hydrochloride every 20 minutes.
The animals were systemically anesthetized by an intramuscular injection of 5.0-7.5 mg/kg of ketamine hydrochloride (Ketalar 50, Sankyo Co., Ltd.), and the ocular surface was anesthetized by a instillation of 0.4% oxybuprocaine hydrochloride (Benoxil 0.4% solution, Santen Pharmaceutical Co., Ltd.). The animals were fixed in a supine position, and the intraocular pressure was measured by use of a pneumatonometer (Model 30 Classic, Mentor O & O.) before, and 3 and 5 hours after starting the perfusion (2 and 4 hours after stopping the perfusion, respectively).
The animals were used two times. The same eye of each animal was used for both treatments in a crossover way with a recovery period for at least 12 days.
The data were statistically analyzed with Student's t-test or paired t-test. P values less than 0.05 were considered to be statistically significant.

For experiment [2] the test system is unchanged. The experiment in a line: Intraocular pressure lowering effect by perfusion in the anterior chamber in monkeys (Example 1, 59 ng/mL). The class given is in vivo, cynomolgus monkeys. The note with it: for IOP decrease as compared with changes in IOP of the control after vehicle perfusion: 59 ng/mL, anterior chamber perfusion 50 μL/min for 1 hour, n=2. The method, then: The intraocular pressure lowering effect of 15-keto acid of latanoprost (13,14-dihydro-15-keto-17-phenyl-18,19,20-trinor-PGF2α) by perfusion in the anterior chamber in monkeys was investigated.
Male cynomolgus monkeys (body weight: 4.5-6.5 kg) were used. These monkeys were housed individually in cages for monkeys in a room which was maintained at room temperature of 24±1° C., relative humidity of 55±10%, ventilation of about 12 times/hour and a 12-hour light-dark cycle (fluorescent lighting: 8:00 a.m. to 8:00 p.m). The animals were given solid food for monkeys (PS, Oriental Yeast Co., Ltd.), vegetables and fruits, and allowed free access to tap water from an automatic dispenser. The healthy animals without abnormalities in the anterior segment of the eye were used in this study.
In the present study the solution containing 59 ng/mL of 15-keto acid of latanoprost was adjusted with commercially available intraocular perfusate (Opeguard-MA, Lot P-464, Senju Pharmaceutical Co., Ltd.). The control solution (vehicle) was the intraocular perfusate.
The animals were anesthetized by the injection intramuscularly with 5.0-7.5 mg/kg of ketamine hydrochloride (Ketalar®50, Sankyo Co., Ltd.), and restrained in a supine position. In operation and perfusion of the dosing solution in the anterior chamber, the anesthesia was maintained by intramuscular injection of 5 mg/kg of ketamine at interval of 30 minutes. […]
After the ocular surface of monkeys was anesthetized by instillation of 0.4% oxybuprocaine hydrochloride (Benoxil® 0.4% solution, Santen Pharmaceutical Co., Ltd.) under i.m. systemic anesthesia with 5 mg/kg of ketamine hydrochloride, IOP was measured with an applanation pneumatonograph (Alcon Japan Ltd.). IOP was measured before perfusion of the test substance and 2 and 4 hours after perfusion (3 and 5 hours, respectively, after the start of the perfusion of the test substance). The mean value of the IOP measured twice at 30-minute interval before perfusion was used as IOP before perfusion of the test substance. […]

[3] abbreviates: 2 ng/mL, 3 hours after starting perfusion.
[4] abbreviates: 2 ng/mL, 5 hours after starting perfusion.

In the case of `O=C(O)CCC/C=C\C[C@@H]1[C@@H](CCC(=O)CCc2ccccc2)[C@H](O)C[C@@H]1O` [15-keto acid of latanoprost, 13,14-dihydro-15-keto-17-phenyl-18,19,20-trinor-PGF2α], the “effect on intraocular pressure (in words)” value in experiment [1] (2 ng/mL solution, intra-anterior chamber perfusion) is reported as “significant reduction in the intraocular pressure”; in experiment [2] (perfusion in the anterior chamber, monkeys) it was “intraocular pressure was lowered”. In addition, the IOP is recorded as 23.1 ± 1.3 mmHg in experiment [1] (setting [3]); 24.4 ± 0.7 mmHg in experiment [1] (setting [4]); 24.1 ± 0.8 mmHg in experiment [1] (2 ng/mL, before perfusion). For the same molecule, the “Difference in IOP between both treatments (IOP in 15-keto acid of latanoprost treatment minus IOP in vehicle treatment)” value is reported as −2.9 ± 1.1 mmHg in experiment [1] (setting [3]); 0.0 ± 1.0 mmHg in experiment [1] (setting [4]); 0.7 ± 1.1 mmHg in experiment [1] (2 ng/mL, before perfusion). The “ΔIOP: Changes of IOP from pre-treatment value” is −1.0 ± 0.7 mmHg in experiment [1] (setting [3]) and 0.3 ± 0.7 mmHg in experiment [1] (setting [4]). The “lowering of intraocular pressure as compared with the pre-treatment value” in experiment [1] (2 ng/mL, 3 hours after starting the perfusion) amounted to 1.0 mmHg. For the same molecule, the “IOP decrease as compared with changes in IOP of the control after vehicle perfusion” value in experiment [2] (3 hours after the start of perfusion) is listed as 2.8 mmHg; in experiment [2] (5 hours after the start of perfusion) it was 2.3 mmHg.
